Measured values as given in PubChem BioAssay (NCI).
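Values below derive from 48-hour exposures of cells grown in 96-well plates, with endpoints linearly interpolated between the two concentrations bracketing the appropriate inhibition level. At the TGI there is no net growth.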

How the values were obtained:
Assay in all cases: growth of human tumour cells (NCI), 48 h
[1] = system: 786-0 renal
[2] = system: A498 renal
[3] = system: A549 NSCLC
[4] = system: ACHN renal
[5] = system: BT-549 breast
[6] = system: CAKI-1 renal
[7] = system: CCRF-CEM leukemia
[8] = system: COLO 205 colon
[9] = system: DU-145 prostate
[10] = system: EKVX NSCLC
[11] = system: HCC-2998 colon
[12] = system: HCT-116 colon
[13] = system: HCT-15 colon
[14] = system: HOP-62 NSCLC
[15] = system: HOP-92 NSCLC
[16] = system: HS 578T breast
[17] = system: HT29 colon
[18] = system: IGROV1 ovarian
[19] = system: K-562 leukemia
[20] = system: KM12 colon
[21] = system: LOX IMVI melanoma
[22] = system: M14 melanoma
[23] = system: MALME-3M melanoma
[24] = system: MCF7 breast
[25] = system: MDA-MB-231 breast
[26] = system: MDA-MB-435
[27] = system: MDA-N
[28] = system: MOLT-4 leukemia
[29] = system: NCI-H226 lung
[30] = system: NCI-H23 lung
[31] = system: NCI-H460 lung
[32] = system: NCI/ADR-RES ovarian
[33] = system: OVCAR-3 ovarian
[34] = system: OVCAR-4 ovarian
[35] = system: OVCAR-5 ovarian
[36] = system: OVCAR-8 ovarian
[37] = system: PC-3 prostate
[38] = system: SF-295 CNS
[39] = system: SF-539 CNS
[40] = system: SK-MEL-2 melanoma
[41] = system: SK-MEL-28 melanoma
[42] = system: SK-MEL-5 melanoma
[43] = system: SN12C renal
[44] = system: SNB-19 CNS
[45] = system: SNB-75 CNS
[46] = system: SW-620 colon
[47] = system: T-47D breast
[48] = system: TK-10 renal
[49] = system: U251 CNS
[50] = system: UACC-257 melanoma
[51] = system: UACC-62 melanoma
[52] = system: UO-31 renal
[53] = system: HL-60(TB) leukemia
[54] = system: RPMI-8226 leukemia
[55] = system: SF-268 CNS
[56] = system: SK-OV-3 ovarian
[57] = system: SR leukemia
[58] = system: NCI-H522 lung
[59] = system: RXF 393 renal

Measured: TGI

O=c1[nH]nc(Cc2ccc(Cl)cc2)n1Nc1ccccc1
27.8 µM: [9]
not listed: [53] | [54] | [55] | [56] | [57] | [58] | [59]
> 100 µM: all other assays above

CCOC(=O)/C(C#N)=N\Nc1ccc(-n2c(C)nc3ccc(Br)cc3c2=O)cc1
not listed: [11] | [23] | [34] | [58] | [59]
> 100 µM: all other assays above

CCC/C(Cl)=N/OC(=O)Nc1cccc(F)c1
37.4 µM: [36]
41.6 µM: [3]
2.98 µM: [46]
6.34 µM: [47]
23.1 µM: [27]
3.18 µM: [15]
20.5 µM: [59]
> 19.7 µM: [48]
20.4 µM: [42]
29.9 µM: [14]
3.98 µM: [8]
1.05 µM: [58]
30.7 µM: [37]
4.1 µM: [13]
6.6 µM: [33]
8.08 µM: [54]
7.77 µM: [6]
9.35 µM: [17]
31 µM: [56]
8.85 µM: [24]
36.3 µM: [35]
38.2 µM: [30]
32.3 µM: [44]
27.7 µM: [25]
14.7 µM: [22]
28 µM: [50]
> 21.1 µM: [32]
10.4 µM: [5]
12.2 µM: [10]
5.42 µM: [21]
> 63.1 µM: [16]
3.11 µM: [23]
15.2 µM: [43]
9.82 µM: [41]
27.5 µM: [18]
8.87 µM: [19]
25.4 µM: [34]
18.6 µM: [12]
3.2 µM: [1]
24.8 µM: [26]
5.55 µM: [28]
32.5 µM: [38]
28.3 µM: [45]
2.88 µM: [4]
27.9 µM: [29]
32.6 µM: [49] | [51]
23.3 µM: [52]
39 µM: [31]
30.4 µM: [11]
31.2 µM: [20]
33.4 µM: [40]
> 54.4 µM: [55]
31.6 µM: [9]

CC1=NN(c2ccccc2Cl)C2(C1)SCC(=O)N2c1nc2ccccc2s1 (stereo not given)
not listed: [7] | [28] | [53] | [57]
> 100 µM: all other assays above
